Assay [1] has as its target T1, steroid sulfatase (Homo sapiens, UniProt P08842).
T1 sequence (P08842 22-583): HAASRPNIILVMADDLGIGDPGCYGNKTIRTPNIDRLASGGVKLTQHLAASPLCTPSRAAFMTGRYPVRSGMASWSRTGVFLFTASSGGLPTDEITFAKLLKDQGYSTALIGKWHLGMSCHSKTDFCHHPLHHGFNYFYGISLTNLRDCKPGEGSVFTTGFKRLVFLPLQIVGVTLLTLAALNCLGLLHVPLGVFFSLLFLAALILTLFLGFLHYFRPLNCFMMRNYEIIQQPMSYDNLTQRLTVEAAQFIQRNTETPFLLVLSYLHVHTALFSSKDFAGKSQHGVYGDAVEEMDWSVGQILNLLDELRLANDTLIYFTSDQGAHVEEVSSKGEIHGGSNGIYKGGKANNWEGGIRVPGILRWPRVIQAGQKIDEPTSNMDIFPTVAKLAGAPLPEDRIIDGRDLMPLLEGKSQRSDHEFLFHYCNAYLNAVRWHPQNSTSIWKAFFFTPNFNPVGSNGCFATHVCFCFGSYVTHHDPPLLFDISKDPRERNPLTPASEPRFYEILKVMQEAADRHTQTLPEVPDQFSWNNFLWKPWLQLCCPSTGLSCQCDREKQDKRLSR
Put plainly: Assay using human skin homogenate (DHEAS cleavage). On the set-up: Frozen specimens of human cadaver skin (about 100 mg per sample) are minced into small pieces; from tissue; host or cells: human cadaver skin, minced, in Triton X-100 buffer. It counts as biochemical. Conditions: human cadaver skin homogenate; [3H]DHEAS substrate; 18 hrs at 37° C. As to the method: Frozen specimens of human cadaver skin (about 100 mg per sample) are minced into small pieces (about 1×1 mm) using sharp scissors. The pieces obtained are suspended in ten volumes (w/w) of buffer (20 mM Tris-HCl, pH 7.5), containing 0.1% Triton X-100. Test compounds (e.g. compounds of the present invention or compounds for use in the present invention) are added at graded concentrations from stock solutions in ethanol or DMSO. Second, DHEAS as the substrate is added (1 μC/ml [^3H]DHEAS, specific activity: about 60 Cl/mmol, and 20 μM unlabeled DHEAS). Samples are incubated for 18 hrs at 37° C. At the end of the incubation period, 50 μl of 1 M Tris, pH 10.4 and 3 ml of toluene are added. A 1-ml aliquot of the organic phase is removed and subjected to liquid scintillation counting. The determined dpm-values in the aliquots are converted to nmol of DHEA cleaved per g of skin per hour.

Assay [2] has as its target T1, steroid sulfatase. Put plainly: Assay of human steroid sulfatase (4-methylumbelliferyl sulfate cleavage, fluorescence). It counts as biochemical. On the set-up: Human placenta is obtained freshly after delivery and stripped of membranes and connective tissues; from tissue; host or cells: human placenta (microsomes, Triton X-100 extract, chromatographically purified). The note with it: purified human placental steroid sulfatase; 4-methylumbelliferyl sulfate substrate; 37° C., 1 hour. As to the method:
Human placenta is obtained freshly after delivery and stripped of membranes and connective tissues. For storage, the material is frozen at −70° C. After thawing, all further steps are carried out at 4° C., while pH values are adjusted at 20° C. 400 g of the tissue is homogenized in 1.2 l of buffer A (50 mM Tris-HCl, pH 7.4, 0.25 M sucrose). The homogenate obtained is centrifuged at 10,000×g for 45 minutes. The supernatant is set aside and the pellet obtained is re-homogenized in 500 ml of buffer A. After centrifugation, the two supernatants obtained are combined and subjected to ultracentrifugation (100,000×g, 1 hour). The pellet obtained is resuspended in buffer A and centrifugation is repeated. […]
It is known that purified human steroid sulfatase not only is capable to cleave steroid sulfates, but also readily cleaves aryl sulfates such as 4-methylumbelliferyl sulfate which is used in the present test system as an activity indicator. […]
Plates are incubated at 37° C. for 1 hour. […] Fluorescence intensity is determined in a Titertek Fluoroskan II instrument with λex=355 nm and λem=460 nm. […]
[formula] wherein I100 is the intensity observed in the absence of inhibitor and s is a slope factor. Estrone sulfamate is used as a reference compound and its IC50 value is determined in parallel to all other test compounds. […]

The values that follow come from patent US7291734B2, “N-sulfonylaminothiazole” (Novartis AG, priority 2002, dated 2007).

Usually IC50 stands for the concentration at which inhibition is half-maximal. As to “2-[2-(3,5-Bis-trifluoromethyl-benzenesulfonylamino)-6,7-dihydro-4H-thiazolo-[5,4-c]pyridin-yl]4-trifluoromethyl-benzamide [Example 1]”, half-maximal inhibition in assay [1] (IC50) was put at 160 nM.

In assay [2], `CC12CCC3c4ccc(OS(N)(=O)=O)cc4CCC3C1CCC2=O` (centres unmarked) [estrone sulfamate] came in with an IC50 of approximately 60 nM.
